Assay results from patent US6723703B2, “Therapeutic use of aerosolized S-nitrosoglutathione in cystic fibrosis” (Duke University, priority 2000, dated 2004).
Entries after “also recorded” stand apart in the source; their conditions may differ.

Key:
[1] = system: patients with CF; assay: Double-blind, placebo-controlled nebulized GSNO study in patients with CF; type: in vivo, human
Description: FIG. 3. […] In a double-blind, placebo-controlled study, patients with CF received GSNO in 10 mM phosphate buffered saline (PBS) (n=9) or 10 mM PBS alone (n=11) by nebulizer. The two groups were matched with respect to age, vital signs, oxygen saturation, vital capacity, FEV1, and FEF25-75(p=7). Change in oxygen saturation from pretreatment baseline is recorded as a function of time. Results are shown in FIG. 3 where the continuous line represents the GSNO group and the line composed of dashes represents the PBS alone group. […] FIG. 4. Inhaled S-nitrosoglutathione cases increased expired nitric oxide (NO) concentration in CF. Data presented represent the two groups described in FIG. 3, but with respect to expired nitric oxide concentration (measured off-line with chemiluminescence in accordance with American Thoracic Society guidelines). Results are shown in FIG. 4 where the continuous line represents the GSNO group and the line composed of dashes represents the PBS alone group. […] Note that the change at 30 minutes is less pronounced than at 5 minutes, though improvement in oxygenation is as dramatic at 30 minutes as at 5 minutes. […] These S-nitrosylation reactions may be critically important to smooth muscle relaxation, antimicrobial effects and modification of ion channel function. FIGS. 5A, 5B, 5C, 5D, 5E and 5F. Inhaled S-nitrosoglutathione is well tolerated in CF patients.

[2] = system: human airway smooth muscle preparations; conditions: read-out: IC50 in relaxing human airway smooth muscle preparations; cited from earlier work
[3] = system: ubiquitin proteosome pathway; assay: Inhibition of the ubiquitin proteosome pathway (preliminary evidence); conditions: stabilizes expression of hypoxy inducible factor 1
Text: Cystic fibrosis is caused by mutations in a membrane-associated chloride channel, the cystic fibrosis transmembrane regulatory protein (CFTR). The most common mutation, accounting for 70% of alleles, is a 3 base pair (single amino acid) deletion at the 508 position on the first ATP binding domain, the (ΔF508) mutation. This is referred to as a class II mutation in that intact and potentially functional protein is degraded in the endoplasm reticulum because of a small folding error. It is known that his degradation can be bypassed in vitro by hypothermia and by treatment with compounds,such as glycerol and phenylbutyrate. These treatments result in functional expression of (ΔF508) CFTR on the cell surface. It has recently been proposed that CFTR degradation in the endoplasmic reticulum (ER) is mediated by the ubiquitin-proteasome system.

[4] = cited from earlier work
[5] = system: human CFTR protein bearing the ΔF508 mutation; assay: Western blot of CFTR in CFPAC-1 cells treated with GSNO; type: cell-based
Description: FIG. 1. […] Human pancreatic adenocarcinoma cells from a patient homozygous for ΔF508 (CFPAC-1) were grown to confluence and treated with medium alone (control) or 500 nM, 1 μM, 5 μM, 10 μM or 100 mM GSNO for 6 hours. The cells were harvested, lysed, resuspended in NP40 buffer and underwent Western Blot analysis with anti-CFTR antibody. […] Increased expression of the immature non-glycosylated protein (140 kDa) reflects decreased degradation of the immature protein in the endoplasma retimulum The appearance of a band at 180 kDa (mature protein) reflects maturation of the protein in the endoplasmic reticulum, an expression of a form capable of being expressed on the cell surface representative of three experiments. The full maturing of the protein accommodates for the ΔF508 mutation.

[6] = cells homozygous to the ΔF508 mutation, 100 μM GSNO

N[C@@H](CCC(=O)N[C@@H](CSN=O)C(=O)NCC(=O)O)C(=O)O [GSNO, S-nitrosoglutathione]
tolerability (vital signs, lung function, systemic effects) ([1]; CF patients, inhaled 0.05 ml/kg of 10 mM GSNO): no acute change in vital signs or lung function was observed; also recorded: well tolerated in CF and has no adverse systemic affects | change in oxygen saturation from pretreatment baseline ([1]; inhalation of 0.05 ml/kg of 10 mM GSNO by nebulizer vs PBS alone, p<0.001 by ANOVA): greater improvement in oxygen saturation than those in the PBS group; also recorded: improved oxygenation | IC50 [2]: ~10 µM | inhibition of ubiquitin proteosome pathway [3]: inhibits the ubiquitin proteosome pathway | stability at acid pH [4]: stable at acid pH | stabilization and maturation of ΔF508 CFTR protein (Western blot, 140/160/180 kDa bands) ([5]; CFPAC-1 cells, 500 nM, 1 μM, 5 μM, 10 μM or 100 mM GSNO for 6 hours): stabilizes and allows maturation of human CFTR protein bearing the ΔF508 mutation | expression of CFTR [5, 6]: increases the expression of CFTR | maturation of CFTR [5, 6]: increases the maturation of CFTR
